EPA's ToxValDB 9.5
Values joined by “and” are separate entries in the source; they are usually repeats but may differ in a detail not shown here. Equal values may be shown once. Where a name gives a salt, the structure may show the parent alone.

System: Rattus norvegicus
Conditions: for LD50 / LC50: acute
[1] = chronic, duration: 16 weeks, oral, diet, Wistar
[2] = repeat dose other, inhalation, Sprague-Dawley
[3] = subchronic, duration: 3 months, inhalation, Sprague-Dawley
[4] = reproduction developmental, oral, gavage, Wistar

## CCCCCCCC/C=C\CCCCCCCC(=O)OC[C@@H](O)[C@H]1OC[C@H](O)[C@H]1O [Sorbitan, mono-(9Z)-9-octadecenoate]
oral, gavage
  LD50: > 39800 mg/kg
oral, gavage, Wistar
  LD50: > 39800 mg/kg
[1]
  LOAEL (% diet): 2.5
  NOAEL: 1700 mg/kg-day
chronic, oral, diet
  NOAEL: 1450 mg/kg-day
  NOAEL (% diet): 2.5

## CS [Methanethiol]
inhalation, Sprague-Dawley
  LC50: 1330 mg/m3 and ≥ 1260 mg/m3 and ≤ 1390 mg/m3
inhalation, WBS/W
  LC50: 3310 mg/m3 and ≥ 2810 mg/m3 and ≤ 3900 mg/m3
[2]
  LOAEL: 112 mg/m3
  NOAEL: 33.4 mg/m3
[3]
  LOAEL: 112 mg/m3
  NOAEL: 33.4 mg/m3

## C=CCCC#N [4-Pentenenitrile]
inhalation, Sprague-Dawley
  LC50: 8460 mg/m3

## O=C(OCCOCCOCCOC(=O)c1ccccc1)c1ccccc1 [Ethylenebis(oxyethylene) dibenzoate]
dermal, Sprague-Dawley
  LD50: > 2000 mg/kg
oral, Sprague-Dawley
  LD50: 4190 mg/kg and 3540 mg/kg and 4840 mg/kg
developmental, duration: 14 days, oral, gavage, Sprague-Dawley
  NOAEL: 1000 mg/kg-day
subchronic, duration: 13 weeks, oral, diet, F
  NOAEL: 1000 mg/kg-day
subchronic, duration: 13 weeks, oral, diet, M
  NOAEL: 1000 mg/kg-day

## CCCCCCCCCCCC#N [n-Undecyl cyanide]
oral
  LD50: > 3400 mg/kg

## CC(C)CC(C)OP(=S)([S-])OC(C)CC(C)C.CC(C)CC(C)OP(=S)([S-])OC(C)CC(C)C.[Zn+2] (stereo not given)
oral, gavage, Sprague-Dawley
  LD50: ≥ 2000 mg/kg and ≤ 5000 mg/kg

## c1ccc(-c2cccc(-c3ccccc3)c2)cc1 [1,1':3',1''-Terphenyl]
oral, gavage, Sprague-Dawley
  LD50: 2400 mg/kg
short-term, duration: 14 days, oral, diet, Wistar
  LOAEL (% diet): 0.2

## C1=C\CC/C=C\CC/1 [1,5-Cyclooctadiene]
dermal, occlusive, Crl:CD1
  LD50: > 3520 mg/kg
oral
  LD50: 2380 mg/kg
short-term, duration: 2 weeks, inhalation, M
  NOAEL: 664 mg/m3

## O=[N+]([O-])c1cccc(Cl)c1 [1-Chloro-3-nitrobenzene]
oral, gavage, Sprague-Dawley
  LD50: 400 mg/kg

## CC(C)C(=O)OCC(C)(C)C(OC(=O)c1ccccc1C(=O)OCc1ccccc1)C(C)C (stereo not given)
oral, gavage, Sprague-Dawley
  LD50: > 18500 mg/kg

## Fc1ccccc1 [Fluorobenzene]
inhalation
  LC50: 26900 mg/m3
short-term, duration: 28 days, inhalation, F, Sprague-Dawley
  NOAEL: 0.37 mg/L
short-term, duration: 28 days, inhalation, M, Sprague-Dawley
  NOAEL: 0.37 mg/L

## CCCCCCCCCCCCOCCOCCOS(=O)(=O)[O-].[Na+] [Diethylene glycol monolauryl ether sulfate sodium salt]
oral, gavage, Sprague-Dawley
  LD50: > 5000 mg/kg

## CCCCCCCCCCCCCCN(C)C [Dimethyl(tetradecyl)amine]
oral, gavage
  LD50: 2120 mg/kg
oral, gavage, Wistar
  LD50: 1320 mg/kg

## Cc1cccc2[nH]c([S-])nc12.Cc1cccc2[nH]c([S-])nc12.[Zn+2]
dermal, semiocclusive, Sprague-Dawley
  LD50: > 2000 mg/kg
inhalation, Sprague-Dawley
  LC50: > 2.03 µg/mL
oral
  LD50: 800 mg/kg

## O=P(O)(O)c1ccccc1 [Phenylphosphonic acid]
dermal, occlusive, Crl:CD(SD) BR
  LD50: > 2000 mg/kg

## c1ccc(Oc2ccccc2)cc1 [Diphenyl oxide]
oral, gavage, Sprague-Dawley
  LD50: 2450 mg/kg
developmental, duration: 10 days, oral, gavage, Sprague-Dawley
  NOAEL: ≥ 500 mg/kg-day
Reproduction developmental, duration: 10 days, oral, gavage, F, Sprague-Dawley
  NOAEL: ≥ 50 mg/kg-day
subchronic, duration: 13 weeks, oral, diet, Sprague-Dawley
  NOAEL: > 480 mg/kg-day

## CCCCCCCCCCCCCCCCN(C)C [N,N-Dimethyl-1-hexadecanamine]
oral, gavage
  LD50: 1020 mg/kg
oral, gavage, Sprague-Dawley
  LD50: > 2000 mg/kg

## CC(CC(=O)O)CC(C)(C)C (stereo not given) [3,5,5-Trimethylhexanoic acid]
Reproduction developmental, oral, diet, F, Sprague-Dawley
  NOAEL: 1200 ppm
Reproduction developmental, oral, diet, Sprague-Dawley, generation: F1
  NOAEL: 1200 ppm

## CC(=O)C(=NNc1ccc(-c2ccc(NN=C(C(C)=O)C(=O)Nc3ccc(C)cc3C)c(Cl)c2)cc1Cl)C(=O)Nc1ccc(C)cc1C [C.I. Pigment Yellow 13]
chronic, oral, gavage
  NOAEL: 500 mg/kg-day

## C=CCC [1-Butene]
Reproduction developmental, duration: 28 days, inhalation, Sprague-Dawley, generation: F0
  NOAEL: 18400 mg/m3
Reproduction developmental, inhalation, F, Sprague-Dawley
  NOAEL: 18400 mg/m3
Reproduction developmental, inhalation, M, Sprague-Dawley
  NOAEL: 18400 mg/m3
Reproduction developmental, inhalation, Sprague-Dawley, generation: F0
  NOAEL: 18400 mg/m3
Reproduction developmental, inhalation, Sprague-Dawley, generation: F1
  NOAEL: 18400 mg/m3

## O=C1OCCO1 [1,3-Dioxolan-2-one]
dermal, Wistar
  LD50: > 2000 mg/kg
oral, Sprague-Dawley
  LD50: > 5000 mg/kg
Reproduction developmental, duration: 9 days, oral, gavage, F, Sprague-Dawley
  NOAEL: 1500 mg/kg-day and 750 mg/kg-day

## CCCCCCC(C)OC(=O)CCCCC(=O)OC(C)CCCCCC (stereo not given) [Hexanedioic acid, bis(1-methylheptyl) ester]
oral, gavage
  LD50: > 64000 mg/kg

## c1ccc(-c2cccc(-c3ccccc3)c2)cc1 [Terphenyl]
oral, gavage, Sprague-Dawley
  LC50: > 5000 mg/kg

## CC(C)CC(C)OC(=O)/C=C\C(=O)OC(C)CC(C)C (stereo not given) [Bis(1,3-dimethylbutyl) maleate]
oral, gavage, Wistar
  LD50: 7460 mg/kg

## CC(=O)C(N=Nc1ccc(-c2ccc(N=NC(C(C)=O)C(=O)Nc3ccccc3)c(Cl)c2)cc1Cl)C(=O)Nc1ccccc1 (stereo not given) [C.I. Pigment Yellow 12]
Reproduction developmental, oral, gavage, Wistar, generation: F0
  NOAEL: 1000 mg/kg-day
Reproduction developmental, oral, gavage, Wistar, generation: F1
  NOAEL: 1000 mg/kg-day

## CCC(C)(C#N)N=NC(C)(C#N)CC (stereo not given) [2,2'-Azobis(2-methylbutanenitrile)]
oral, Sprague-Dawley
  LD50: 337 mg/kg

## COC(=O)C1C(C=C(Cl)Cl)C1(C)C (stereo not given)
oral, gavage, Sprague-Dawley
  LD50: > 5000 mg/kg
Reproduction developmental, duration: 28 days, oral, gavage, Sprague-Dawley
  NOAEL: 450 mg/kg-day

## CC(C)OC(=O)CCCCC(=O)OC(C)C [Diisopropyl adipate]
oral
  LD50: > 15000 mg/kg

## CC(O)CN(CC(C)O)CC(C)O (stereo not given) [Triisopropanolamine]
oral, gavage, Wistar
  LD50: 6500 mg/kg
chronic, duration: 102 weeks, oral, diet, Wistar
  NOAEL: > 1220 mg/kg-day
developmental, duration: 6 days, oral, gavage, Wistar
  NOAEL: ≥ 1000 mg/kg-day
Reproduction developmental, duration: 6 days, oral, gavage, F, Wistar
  NOAEL: 400 mg/kg-day

## CCCCCCCCCCCCCCCCCC(=O)[O-].[Li+] [Lithium octadecanoate]
oral
  LC50: ≥ 5000 mg/kg and ≤ 15000 mg/kg

## CCCCOP(=O)(O)OCCCC [Phosphoric acid, dibutyl ester]
subchronic, oral, gavage, Sprague-Dawley
  NOAEL: 30 mg/kg-day

## Cc1ccc(S(=O)(=O)O)cc1 [4-Methylbenzenesulfonic acid]
oral, Wistar
  LD50: 1410 mg/kg
short-term, duration: 28 days, oral, Wistar
  NOAEL: > 500 mg/kg-day

## CCCCCCCCCCCOC(=O)c1ccccc1C(=O)OCCCCCCCCCCC [Diundecyl phthalate]
short-term, duration: 21 days, oral, diet, Fischer 344
  NOAEL: 282 mg/kg-day

## CC=C(C)C [2-Methyl-2-butene]
Reproduction developmental, duration: 28 days, inhalation, Sprague-Dawley
  NOAEL: 1660 mg/m3
Reproduction developmental, inhalation, Sprague-Dawley
  NOAEL: 20100 mg/m3

## COC(=O)CC(C)(C)C(Cl)CC(Cl)(Cl)Cl (stereo not given)
inhalation, Sprague-Dawley
  LC50: > 66.6 mg/m3
oral, Sprague-Dawley
  LD50: > 5000 mg/kg

## CC(C)(C)c1cc(C(C)(C)C)c(O)c(C(C)(C)C)c1 [2,4,6-Tris(tert-butyl)phenol]
oral, Wistar
  LD50: 1610 mg/kg and 1670 mg/kg
chronic, duration: 24 months, oral, diet, Wistar
  NOAEL: 2.34 mg/kg-day

## Clc1cc(Cl)c(Cl)nc1Cl [2,3,5,6-Tetrachloropyridine]
oral
  LD50: ≥ 1180 mg/kg and ≤ 1410 mg/kg
oral, gavage
  LD50: 1000 mg/kg
chronic, duration: 91 days, oral, diet, Sherman Wistar
  NOAEL: 100 mg/kg-day
Reproduction developmental, duration: 52 days, oral, gavage, F, Sprague-Dawley
  NOAEL: 25 mg/kg-day
Reproduction developmental, duration: 52 days, oral, gavage, M, Sprague-Dawley
  NOAEL: 150 mg/kg-day
Reproduction developmental, duration: 52 days, oral, gavage, Sprague-Dawley
  NOAEL: 150 mg/kg-day
Reproduction developmental, duration: 52 days, oral, gavage, Sprague-Dawley, generation: F1
  NOAEL: 150 mg/kg-day
subchronic, duration: 52 days, oral, gavage, F, Sprague-Dawley
  NOAEL: 25 mg/kg-day
subchronic, duration: 52 days, oral, gavage, M, Sprague-Dawley
  NOAEL: 150 mg/kg-day

## CSC(C)(C)/C=N/O [Aldicarb oxime]
oral, Wistar
  LD50: 809 mg/kg
[4]
  LOAEL: 25 mg/kg-day
  NOAEL: 5 mg/kg-day
